Measured values reported in patent US20220313710A1, “COMPOSITIONS AND METHODS USING NON-STEROIDAL ANTI-INFLAMMATORY DRUGS” (APPLIED BIOLOGICAL LABORATORIES, INC., priority 2019, published 2022).

Assays:
Assay type in all cases: cell-based
[1] = system: 3D model of human airway epithelium; conditions: 48 h, 6 mg/ml
Experimental: Various compositions were tested for their ability to protect a 3D model of human airway epithelium, constituted with primary human epithelial cells freshly isolated from nasal (MucilAir™ nasal pool), or tracheal or bronchial biopsies (MatTek PE-200-6.5). MucilAir™ and MatTek tissues are reconstituted human 3D tissue from airways and lung surgical pieces, fully differentiated, pseudostratified in vitro epithelium. MucilAir™_Pool is of nasal polyp origin and reconstituted with a mixture of cells isolated from 14 different donors. […] MatTek tissues are from tracheo-bronchial origin. The respiratory epithelium lining the nose and throat have very similar histology and architecture. These two different models reconfirm that models from different origin have similar responses to treatment in the case that one model may have more underlying inflammation, or other variability with respect to its retrieval than another. […]
Tissue integrity was also monitored using transepithelial electrical resistance (“TEER”) measurements. […]
For TEER measurements, 200 μL of warm MucilAir™ media or MatTek TEER buffer was applied on the apical side of each insert. […] The resistance (Ω) is read on the Voltohmmeter and the TEER value was calculated with the following formula: TEER (Ω·cm^2)=(resistance value (Ω)−100 (Ω))×0.33 (cm^2). […]

[2] = system: 3D model of human airway epithelium; experiment: IL-8 ELISA on basal medium of bradykinin-stimulated 3D airway epithelia (MucilAir, MatTek)
Experimental: (§1) Various compositions were tested for their ability to protect a 3D model of human airway epithelium, constituted with primary human epithelial cells freshly isolated from nasal (MucilAir™ nasal pool), or tracheal or bronchial biopsies (MatTek PE-200-6.5). MucilAir™ and MatTek tissues are reconstituted human 3D tissue from airways and lung surgical pieces, fully differentiated, pseudostratified in vitro epithelium. MucilAir™_Pool is of nasal polyp origin and reconstituted with a mixture of cells isolated from 14 different donors. […] MatTek tissues are from tracheo-bronchial origin. The respiratory epithelium lining the nose and throat have very similar histology and architecture. These two different models reconfirm that models from different origin have similar responses to treatment in the case that one model may have more underlying inflammation, or other variability with respect to its retrieval than another.
(§2) Compositions were formulated with various concentrations of acetylsalicylic acid (ASA 0.6 mg/ml or ASA 6 mg/ml) in an aqueous saline solution vehicle such as 0.9% NaCl, 1.25 mM CaCl2, 10 mM HEPES. 10 μL of each formulation was added apically either to the MucilAir™ or MatTek tissues. Formulations were either added 10 minutes after activation of an inflammatory response in the media (FIGS. 1A-B, 3A, 4A), or 5 minutes before activation of an inflammatory response in the media (FIGS. 2A-B, 3B, 4B). Due to the rate of saliva production and concomitant dilution of acetylsalicylic acid on the mucosa, administration of each concentration in vitro correlates to a 10× concentration in product form. For example, 0.6 mg/ml ASA in the in vitro measurements corresponds administration of 6 mg/ml ASA in compositions, and 6 mg/ml […] corresponds to administration of 60 mg/ml in compositions.
(§3) Typically, the inflammatory cytokine bradykinin stimulates the prostaglandin pathway (through arachidonic acid) which then stimulates IL-8, another inflammatory cytokine. […] The inflammatory response of the prostaglandin pathway was stimulated through the addition of 10 μL of 25 mg/ml bradykinin protein was applied to the apical side of the MucilAir™ media.
(§4) Four hours following bradykinin application various measurements of the inflammatory response were measured. Epithelia were washed twice with MucilAir™ culture medium in order to clean the inoculum. Liquid aliquots from the basal medium were collected and stored at −80° C. for future study.
(§5) Prostaglandin E2 or IL-8 enzyme-linked immunosorbent assays (ELISA) were performed on the liquid aliquots from the basal medium to determine the amount of prostaglandin E2 produced as a result of inflammatory conditions initiated in each test condition. […] Although, acetylsalicylic acid is typically administered in doses greater than these measured, this dosage increased the inflammatory response.
MatTek (tracheal bronchial tissue) or MucilAir (nasal polyps) 3D inserts were placed in pre-warmed media corresponding to each cell system and incubated for 15 minutes at 37° C. L of saliva (negative control) or treatment was added to the apical surfaces. 5 minutes later, 10 μL of saliva or bradykinin was added to the apical side as well. Bradykinin was obtained from Tocris or New England Peptide (NEP) as indicated. At 4 hours, samples from the basal media were collected and frozen at −80° for PGE-2 ELISA measurements. […] TEER was measured again at 48 hours. […]

[3] = system: 3D model of human airway epithelium; experiment: Prostaglandin E2 ELISA on basal medium of bradykinin-stimulated 3D airway epithelia (MucilAir, MatTek)
Experimental: as §1, §2, §3, §4, §5
MatTek (tracheal bronchial tissue) or MucilAir (nasal polyps) 3D inserts were placed in pre-warmed media corresponding to each cell system and incubated for 15 minutes at 37° C. L of saliva (negative control) or treatment was added to the apical surfaces. 5 minutes later, 10 μL of saliva or bradykinin was added to the apical side as well. Bradykinin was obtained from Tocris or New England Peptide (NEP) as indicated. At 4 hours, samples from the basal media were collected and frozen at −80° for PGE-2 ELISA measurements. At 24 hours, the inserts were moved to fresh basal media (corresponding to each cell system) and 200 L of media were added to each apical side for TEER analysis as described previously. The plate was then incubated for 5 minutes. Following TEER measurements, the apical solution was removed and 10 μL of each treatment (or saliva) was added to the apical surface. No bradykinin was added. TEER was measured again at 48 hours. Additionally, at 24 hours and 48 hours, basal media was collected and frozen for IL-8 and LDH analyses. […]

[4] = dose above the therapeutic window
[5] = overall statement, concentration not given

TEER (barrier function of the epithelia) [1]: < 100 Ω·cm^2
SMILES: CC(=O)Oc1ccccc1C(=O)O [ASA, acetylsalicylic acid]
IL-8 concentration ([2]; 0.6 mg/ml ASA, therapeutic and prophylactic modalities (FIGS. 4A, 4B)): A similar result was not observed | IL-8 concentration ([2]; 6 mg/ml ASA, prophylactic modality (added before bradykinin, FIG. 4B)): significantly greater | IL-8 concentration ([2]; 6 mg/ml ASA, therapeutic modality (added after bradykinin, FIG. 4A)): significantly greater | IL-8 relative to maximum bradykinin-induced level [2, 4]: increased | levels of IL-8 protein [2, 5]: did not appreciably decrease | prostaglandin E2 production (inflammatory response) versus positive control ([3]; 0.6 mg/ml ASA added 5 minutes before bradykinin (FIGS. 2A, 2B)): did inhibit inflammation in a statistically significant manner | prostaglandin E2 production (inflammatory response) versus positive control ([3]; 0.6 mg/ml ASA added 10 minutes after bradykinin, measured 4 hours after bradykinin (FIGS. 1A, 1B)): resulted in an anti-inflammatory response | prostaglandin E2 production (inflammatory response) versus positive control ([3]; 6 mg/ml ASA added 5 minutes before bradykinin (FIG. 2A)): no statistical significance with respect to positive control | prostaglandin E2 production (inflammatory response) versus positive control ([3]; 6 mg/ml ASA added 10 minutes after bradykinin, measured 4 hours after bradykinin (FIG. 1A)): increased the inflammatory response in a statistically significant matter | PGE2 relative to maximum bradykinin-induced level [3, 4]: increased | PGE-2 levels (bradykinin induced) [3, 5]: significantly decreasing
